According to US11247965B2 (VenatoRx Pharmaceuticals, Inc., priority 2017, dated 2022):

Columns and labels:
[1] = system: HBV replication in HepAD38 cells; experiment: Anti-HBV activity in HepAD38 cells, extracellular HBV DNA by QPCR; assay type: cell-based, HBV (genotype D, serotype ayw); settings: Hepatitis B virus, HePAD38, 168 h, read-out: Anti-HBV EC50, HepAD38 cells, extracellular HBV DNA by QPCR, 7 days of incubation
In short: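 Seven-day compound exposure (30 μM down to 10 nM, half-log steps) after tetracycline withdrawal induced HBV replication in HepAD38 cells. Extracellular viral DNA measured by QPCR (copies/mL via standard curve), normalised to DMSO wells; EC50 from 4-parameter non-linear regression.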

[2] = In vitro cytotoxicity, MTT cell viability assay in HepG2 cells; assay type: cell-based; settings: human, Cytotoxicity CC50
In short: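 Parental HepG2 cells in EMEM + 10% FBS were exposed to compounds (8 half-log dilutions, 30 μM to 1.0 nM) for 7 days at 37 °C, 5% CO2. MTT was then added for 3-4 h, formazan dissolved in DMSO and absorbance read at 492 nm; CC50 came from 4-parameter fits against vehicle controls.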

**Q.** Which results are given for `Cc1cc(NC(=O)c2cc(C(F)(F)C(=O)N3CCC(O)CC3)ccc2F)ccc1F` [Example 90, 5-(1,1-difluoro-2-(4-hydroxypiperidin-1-yl)-2-oxoethyl)-2-fluoro-N-(4-fluoro-3-methylphenyl)benzamide]?
**A.** EC50 [1]: < 5 µM; CC50 at 7 days [2]: 5 to 30 µM

**Q.** For `COc1ccc(C(F)(F)C(=O)N2CCC(O)CC2)cc1C(=O)Nc1ccc(F)c(C)c1` [Example 91, 5-(1,1-difluoro-2-(4-hydroxypiperidin-1-yl)-2-oxoethyl)-N-(4-fluoro-3-methylphenyl)-2-methoxybenzamide], which EC50 [1] is on record?
**A.** The EC50 was greater than 30 µM.

**Q.** And the CC50 at 7 days [2]?
**A.** The CC50 at 7 days was greater than 30 µM.

**Q.** What does the source list for `Cc1cc(NC(=O)c2cccc(C(F)(F)C(=O)N3CCC(O)CC3)c2F)ccc1F` [Example 92, 3-(1,1-difluoro-2-(4-hydroxypiperidin-1-yl)-2-oxoethyl)-2-fluoro-N-(4-fluoro-3-methylphenyl)benzamide]?
**A.** EC50 [1]: < 5 µM; CC50 at 7 days [2]: 5 to 30 µM

**Q.** With `Cc1cc(NC(=O)c2cc(F)cc(C(F)(F)C(=O)N3CCC(O)CC3)c2)ccc1F` [Example 93, 3-(1,1-difluoro-2-(4-hydroxypiperidin-1-yl)-2-oxoethyl)-5-fluoro-N-(4-fluoro-3-methylphenyl)benzamide] as the compound, how does the EC50 [1] read?
**A.** Its EC50 is less than 5 µM.

**Q.** What about the CC50 at 7 days [2] of the same compound?
**A.** The CC50 at 7 days was 5 to 30 µM.

**Q.** For `COc1ccc(C(=O)Nc2ccc(F)c(C)c2)cc1C(F)(F)C(=O)N1CCC(O)CC1` [Example 94, 3-(1,1-difluoro-2-(4-hydroxypiperidin-1-yl)-2-oxoethyl)-N-(4-fluoro-3-methylphenyl)-4-methoxybenzamide], which EC50 [1] is on record?
**A.** Its EC50 is less than 5 µM.

**Q.** And the CC50 at 7 days [2]?
**A.** The CC50 at 7 days was greater than 30 µM.

**Q.** Which EC50 [1] does the source give for `Cc1cc(NC(=O)c2cc(C(F)(F)C(=O)N3CCC(O)CC3)ccc2Cl)ccc1F` [Example 95, 2-chloro-5-(1,1-difluoro-2-(4-hydroxypiperidin-1-yl)-2-oxoethyl)-N-(4-fluoro-3-methylphenyl)benzamide] here?
**A.** Its EC50 is greater than 30 µM.

**Q.** And the CC50 at 7 days [2]?
**A.** Its CC50 at 7 days is greater than 30 µM.

**Q.** Which results are given for `Cc1cc(NC(=O)c2ccn(C)c2C(F)(F)C(=O)N2CCC(O)CC2)ccc1F` [Example 96, 2-(1,1-difluoro-2-(4-hydroxypiperidin-1-yl)-2-oxoethyl)-N-(4-fluoro-3-methylphenyl)-1-methyl-1H-pyrrole-3-carboxamide]?
**A.** EC50 [1]: 5 to 30 µM; CC50 at 7 days [2]: > 30 µM

**Q.** What does the source list for `Cc1cc(NC(=O)c2cc(C(F)(F)C(=O)N3CCC(O)CC3)n(C)c2)ccc1F` [Example 97, 5-(1,1-difluoro-2-(4-hydroxypiperidin-1-yl)-2-oxoethyl)-N-(4-fluoro-3-methylphenyl)-1-methyl-1H-pyrrole-3-carboxamide]?
**A.** EC50 [1]: < 5 µM; CC50 at 7 days [2]: > 30 µM

**Q.** Which EC50 [1] does the source give for `Cc1cc(NC(=O)c2cc(Br)c(C(F)(F)C(=O)N3CCC(O)CC3)n2C)ccc1F` [Example 98, 4-bromo-5-(1,1-difluoro-2-(4-hydroxypiperidin-1-yl)-2-oxoethyl)-N-(4-fluoro-3-methylphenyl)-1-methyl-1H-pyrrole-2-carboxamide] here?
**A.** Its EC50 is greater than 30 µM.

**Q.** What about the CC50 at 7 days [2] of the same compound?
**A.** Its CC50 at 7 days is greater than 30 µM.

**Q.** With `Cc1cc(NC(=O)c2ccc(C(F)(F)C(=O)N3CCC(O)CC3)n2C)ccc1F` [Example 99, 5-(1,1-difluoro-2-(4-hydroxypiperidin-1-yl)-2-oxoethyl)-N-(4-fluoro-3-methylphenyl)-1-methyl-1H-pyrrole-2-carboxamide] as the compound, how does the EC50 [1] read?
**A.** Its EC50 is greater than 30 µM.

**Q.** What about the CC50 at 7 days [2] of the same compound?
**A.** The CC50 at 7 days was greater than 30 µM.

**Q.** For `Cc1cc(NC(=O)c2cc(C(F)(F)C(=O)NC(C)(C)C)n(C)c2)ccc1F` [Example 100, 5-(2-(tert-butylamino)-1,1-difluoro-2-oxoethyl)-N-(4-fluoro-3-methylphenyl)-1-methyl-1H-pyrrole-3-carboxamide], which EC50 [1] is on record?
**A.** Its EC50 is less than 5 µM.

**Q.** What about the CC50 at 7 days [2] of the same compound?
**A.** Its CC50 at 7 days is greater than 30 µM.

**Q.** Which EC50 [1] does the source give for `Cc1cc(NC(=O)c2ccn(C)c2C(F)(F)C(=O)NC(C)(C)C)ccc1F` [Example 101, 2-(2-(tert-butylamino)-1,1-difluoro-2-oxoethyl)-N-(4-fluoro-3-methylphenyl)-1-methyl-1H-pyrrole-3-carboxamide] here?
**A.** The EC50 was less than 5 µM.

**Q.** What about the CC50 at 7 days [2] of the same compound?
**A.** Its CC50 at 7 days is greater than 30 µM.

**Q.** Which results are given for `Cc1cc(NC(=O)c2cc(C(F)(F)C(=O)NC(C)C)n(C)c2)ccc1F` [Example 102, 5-(1,1-difluoro-2-(isopropylamino)-2-oxoethyl)-N-(4-fluoro-3-methylphenyl)-1-methyl-1H-pyrrole-3-carboxamide]?
**A.** EC50 [1]: < 5 µM; CC50 at 7 days [2]: > 30 µM

**Q.** Which EC50 [1] does the source give for `CC[C@H](C)NC(=O)C(F)(F)c1cc(C(=O)Nc2ccc(F)c(C)c2)cn1C` [Example 103, (S)-5-(2-(sec-butylamino)-1,1-difluoro-2-oxoethyl)-N-(4-fluoro-3-methylphenyl)-1-methyl-1H-pyrrole-3-carboxamide] here?
**A.** Its EC50 is less than 5 µM.

**Q.** What about the CC50 at 7 days [2] of the same compound?
**A.** Its CC50 at 7 days is 5 to 30 µM.

**Q.** Which results are given for `Cc1cc(NC(=O)c2cc(C(F)(F)C(=O)NC(C)(C)CO)n(C)c2)ccc1F` [Example 104, 5-(1,1-difluoro-2-((1-hydroxy-2-methylpropan-2-yl)amino)-2-oxoethyl)-N-(4-fluoro-3-methylphenyl)-1-methyl-1H-pyrrole-3-carboxamide]?
**A.** EC50 [1]: < 5 µM; CC50 at 7 days [2]: > 30 µM

**Q.** Which results are given for `Cc1cc(NC(=O)c2ccn(C)c2C(F)(F)C(=O)NC(C)(C)CO)ccc1F` [Example 105, 2-(1,1-difluoro-2-((1-hydroxy-2-methylpropan-2-yl)amino)-2-oxoethyl)-N-(4-fluoro-3-methylphenyl)-1-methyl-1H-pyrrole-3-carboxamide]?
**A.** EC50 [1]: 5 to 30 µM; CC50 at 7 days [2]: > 30 µM

**Q.** For `Cc1cc(NC(=O)c2cc(C(F)(F)C(=O)NC(C)(C)C)n(C)c2C)ccc1F` [Example 106, 5-(2-(tert-butylamino)-1,1-difluoro-2-oxoethyl)-N-(4-fluoro-3-methylphenyl)-1,2-dimethyl-1H-pyrrole-3-carboxamide], which EC50 [1] is on record?
**A.** The EC50 was less than 5 µM.

**Q.** And the CC50 at 7 days [2]?
**A.** The CC50 at 7 days was 5 to 30 µM.

**Q.** What does the source list for `Cc1cc(NC(=O)c2c(C)c(C(F)(F)C(=O)NC(C)(C)C)n(C)c2C)ccc1F` [Example 107, 5-(2-(tert-butylamino)-1,1-difluoro-2-oxoethyl)-N-(4-fluoro-3-methylphenyl)-1,2,4-trimethyl-1H-pyrrole-3-carboxamide]?
**A.** EC50 [1]: < 5 µM; CC50 at 7 days [2]: > 30 µM

**Q.** With `CC[C@H](C)NC(=O)C(F)(F)c1c(C(=O)Nc2ccc(F)c(C)c2)ccn1C` [Example 108, (S)-2-(2-(sec-butylamino)-1,1-difluoro-2-oxoethyl)-N-(4-fluoro-3-methylphenyl)-1-methyl-1H-pyrrole-3-carboxamide] as the compound, how does the EC50 [1] read?
**A.** The EC50 was less than 5 µM.

**Q.** What about the CC50 at 7 days [2] of the same compound?
**A.** Its CC50 at 7 days is greater than 30 µM.

**Q.** For `CC[C@@H](C)NC(=O)C(F)(F)c1cc(C(=O)Nc2ccc(F)c(C)c2)cn1C` [Example 109, (R)-5-(2-(sec-butylamino)-1,1-difluoro-2-oxoethyl)-N-(4-fluoro-3-methylphenyl)-1-methyl-1H-pyrrole-3-carboxamide], which EC50 [1] is on record?
**A.** Its EC50 is less than 5 µM.

**Q.** What about the CC50 at 7 days [2] of the same compound?
**A.** The CC50 at 7 days was greater than 30 µM.

**Q.** Which EC50 [1] does the source give for `CC[C@@H](C)NC(=O)C(F)(F)c1c(C(=O)Nc2ccc(F)c(C)c2)ccn1C` [Example 110, (R)-2-(2-(sec-butylamino)-1,1-difluoro-2-oxoethyl)-N-(4-fluoro-3-methylphenyl)-1-methyl-1H-pyrrole-3-carboxamide] here?
**A.** The EC50 was greater than 30 µM.

**Q.** And the CC50 at 7 days [2]?
**A.** Its CC50 at 7 days is greater than 30 µM.

**Q.** With `Cc1cc(NC(=O)c2cc(C(F)(F)C(=O)NC(C)C(F)(F)F)n(C)c2)ccc1F` (centres unmarked) [Example 111, 5-(1,1-difluoro-2-oxo-2-((1,1,1-trifluoropropan-2-yl)amino)ethyl)-N-(4-fluoro-3-methylphenyl)-1-methyl-1H-pyrrole-3-carboxamide] as the compound, how does the EC50 [1] read?
**A.** The EC50 was less than 5 µM.

**Q.** And the CC50 at 7 days [2]?
**A.** The CC50 at 7 days was greater than 30 µM.
